# Measured values as given in patent US20240299376A1, “METHOD OF TREATING A CONDITION USING A […] EFFECTIVE DOSE OF 1-(1-OXO-1,2-DIHYDROISOQUINOLIN-5-YL)-5-(TRIFLUOROMETHYL)-N-(2-(TRIFLUOROMETHYL)PYRIDIN-4-YL)-1H-PYRAZOLE-4-CARBOXAMIDE” (Janssen Pharmaceutica NV, priority 2021, published 2024).
# Marks after values point to notes of the source that are not given here.
# Columns and labels:
# [1] = tested on: OCI-LY3 human DLBCL xenografts; test: Antitumor efficacy in established OCI-LY3 human DLBCL xenografts; format: in vivo, NSG mice
# Method: The human ABC-DLBCL cell line OCI-LY3 was obtained from Dr. Miguel A Piris, Hospital Universitario Marques de Valdecilla, Santander, Spain. The human ABC-DLBCL cell line OCI-LY-10 was obtained from University Hospital Network, Ontario Cancer Institute. OCY-LY3 cells were maintained at 37° C. in a humidified atmosphere (5% CO2, 95% air), in RPMI-1640 medium with GlutaMAX™, supplemented with 10% Fetal Bovine Serum (Heat Inactivated at 57° C., and 1% Penicillin-Streptomycin). Each mouse received 1×10^6 cells in serum-free RPMI-1640 medium or PBS with Matrigel basement matrix […] in a total volume of 0.2 mL. Cells were implanted SC in the right flank using a 1 ml syringe and a 26-gauge needle. The day of tumor implantation was designated as Day 0.
# Tumor volume was calculated using the formula: tumor volume (mm^3)=(Dxd^2/2); where ‘D’ represents the larger diameter, and ‘d’ the smaller diameter of the tumor as determined by caliper measurements. Tumor volume data was graphically represented as the mean tumor volume±SEM.
# Percent tumor growth inhibition (TGI) was defined as the difference between mean tumor volumes of the treated and control group, calculated as
# where TVc is the mean tumor volume of a given control group and TVt is the mean tumor volume of the treatment group. As defined by National Cancer Institute criteria, ≥60% TGI is considered biologically significant.
# Group tumor volumes are graphed as the mean+/−SEM. Mice were implanted SC on the right flank on Day 0.
# For study 3, animals were randomly assigned into treatment groups, when the OCI-LY3 mean tumor volume was 164 mm^3 (Day 32 post-tumor cell implantation). Treatment was initiated on the day of randomization (Day 32). After 28 days of treatment on Day 60, serum was collected at 2, 4, and 12 hours post last dose for the bid treated groups or 2, 4 and 24 hours post last dose for qd treated groups in cohorts of 5 mice. Blood was collected from the retro-orbital sinus and submitted for bioanalytical analysis.
# [2] = Serum and tumor levels after a single oral dose in male OCI-LY3 tumor-bearing NSG mice; format: in vivo; details: 100 mg/kg single oral dose, PEG400 solution, mean (SD)
# Method: For PD, when tumors reached 550-750 mm^3 animals were assigned randomly into the treatment groups and treated as presented in Table 5. Dose volumes were adjusted to individual body weights at 10 mL/kg. For both PD studies, serum was collected at 2 and 12 hours post treatment from the retro-orbital sinus. At 24 hours post treatment, animals were bled via decapitation and tumors were excised, weighed, and divided for bioanalysis and ex vivo PD analysis. Blood was centrifuged at 10,000 rpm and serum divided for bioanalysis and PD analysis.
# Serum samples were collected at 2, 12, and 24 hours post dose and tumor samples were collected 24 hours post dose.
# [3] = 14-day oral toxicity study toxicokinetics in dogs (beagles); format: in vivo, dog; details: for Cmax: female, beagle, dog, in vivo, po, 250 mg/kg/day
# Method: Repeated-dose PK (toxicokinetics) were obtained as part of the repeated oral dose toleration toxicity studies in rats and dogs.
# However, there was no increase in the exposure parameters at 250 mg/kg/day from the first day of dosing until Day 7 when the dose group was terminated.
# [4] = tested on: phosphorylation of IκBα in OCI-LY3 cells; details: unstimulated conditions
# Source text: The phospho-IκBα (pIκBα) signal was quantified as percent of DMSO control and normalized against β-tubulin.
# [5] = Serum concentration after 28 days of oral dosing in male OCI-LY3 tumor-bearing NSG mice; format: in vivo; details: mouse, mean; for concentration at 0.25 h: 0.25 h post last dose
# [6] = Day 1, 10 to 50 mg/kg/day (5-fold increase in dose)
# [7] = Day 1, 10 to 250 mg/kg/day (25-fold increase in dose)
structure (smiles),measurement,setting,value
"O=C(Nc1ccnc(C(F)(F)F)c1)c1cnn(-c2cccc3c(=O)[nH]ccc23)c1C(F)(F)F [Compound A, 1-(1-oxo-1,2-dihydroisoquinolin-5-yl)-5-(trifluoromethyl)-N-[2-(trifluoromethyl)pyridin-4-yl]-1H-pyrazole-4-carboxamide]",TGI,"[1]; 1 mg/kg BID PO, 4 weeks, vs vehicle control",37%
same,TGI (%) at day 28,"[1]; 1 mg/kg, bid (Table 4)",46%
same,TGI,"[1]; 3 mg/kg BID PO, 4 weeks, vs vehicle control",19%
same,TGI (%) at day 28,"[1]; 3 mg/kg, bid (Table 4)",23%
same,TGI,"[1]; 10 mg/kg BID PO, 4 weeks, vs vehicle control",53%
same,mean TGI,"[1]; 10 mg/kg BID, 3 independent OCI-LY3 antitumor efficacy studies",60%
same,TGI,"[1]; 10 mg/kg BID, previous efficacy studies in the OCI-LY3 model",51-76%
same,TGI,"[1]; 10 mg/kg, 8/16 hr split schedule instead of 12/12 hr",57%
same,TGI (%) at day 28,"[1]; 10 mg/kg, bid (Table 4)",66%
same,TGI,"[1]; 30 mg/kg BID PO, 4 weeks, vs vehicle control",72%
same,TGI,"[1]; 30 mg/kg BID, previous efficacy studies in the OCI-LY3 model",60-86%
same,TGI (%) at day 28,"[1]; 30 mg/kg, bid (Table 4)",90%
same,TGI,"[1]; 60 mg/kg QD PO, 4 weeks, vs vehicle control",57%
same,TGI (%) at day 28,"[1]; 60 mg/kg, qd (Table 4)",71%
same,TGI,"[1]; 100 mg/kg BID PO, 4 weeks, vs vehicle control",72%
same,TGI (%) at day 28,"[1]; 100 mg/kg, bid (Table 4)",90%
same,TGI,"[1]; 100 mg/kg, previous efficacy studies in the OCI-LY3 model",62-89%
same,tolerability,"[1]; 1 to 100 mg/kg (BID or QD), OCI-LY3 and OCI-LY10 xenograft models in NSG mice",well tolerated
same,minimum efficacious dose,"[1]; BID, OCI-LY3 model",10 mg/kg
same,Serum concentration,[2]; 12 h post dose,"4,118 (1,322 ng/ml"
same,Tumor concentration,"[2]; 24 h post dose, N = 4","1,180 (223)^b ng/g"
same,concentration at 2 h,"[2]; male, NSG, mouse, serum, 2 h post dose",3730 ng/mL
same,concentration at 24 h,"[2]; male, NSG, mouse, serum, 24 h post dose",1060 ng/mL
same,increase in AUC0-24h with dose,[3]; [6],5.8 fold
same,increase in Cmax with dose,[3]; [6],5.5 fold
same,increase in AUC0-24h with dose,[3]; [7],23 fold
same,increase in Cmax with dose,[3]; [7],20 fold
same,relation of single doses to maximum tolerated dose (MTD),[3]; escalated single oral doses vs MTD upon 14 days of dosing in dogs,greater than the maximum tolerated dose (MTD) upon 14 days of dosing in dogs
same,toxicity findings,"[3]; female beagles, 10, 50, and 250 mg/kg/day PO for 14 days",moribundity and mortality resulted in early termination of the 50 and 250 mg/kg dose groups
same,Cmax,[3],"263,000 ng/mL"
same,Cmax,[3]; Cmax,290000 ng/mL
same,inhibition of phospho-IκBα,[4],did not inhibit phospho-IκBα
same,concentration at 0.25 h,[5]; 1 mg/kg BID PO 28 days,323 ng/mL
same,concentration at 0.25 h,[5]; 60 mg/kg QD PO 28 days,6990 ng/mL
same,concentration at 8 h,"[5]; 60 mg/kg QD PO 28 days, 8 h post last dose",10600 ng/mL
